In patent publication USRE39062E1, “INGAP protein involved in pancreatic islet neogenesis” (McGill Unviersity, priority 1995, dated 2006):

Columns and labels:
Assay type in all cases: cell-based
[1] = system: rat insulinoma cell line; assay: Growth and proliferation of a rat insulinoma cell line
[2] = system: pancreatic ductal cells; assay: Stimulation of pancreatic ductal cells to grow and proliferate
[3] = system: hamster insulinoma cell line; assay: Growth and proliferation of a hamster insulinoma cell line
[4] = system: hamster duct cell line; assay: Growth and proliferation of a hamster duct cell line
[5] = system: rat tumor duct cell line; assay: Growth and proliferation of a rat tumor duct cell line
[6] = system: hamster insulinoma tumor cells (HIT); assay: 3H-thymidine incorporation into hamster insulinoma tumor cells (HIT), control cell line; details: HIT control cell line in Ham's F-12K media, 24 hrs, TCA precipitation
Method: (§1) The same synthetic peptide was tested for its ability to stimulate ^3H-thymidine incorporation into rat pancreatic tumor duct cells (ARIP) and hamster insulinoma tumor cells (HIT). 10 μCi of ^3H-thymidine at 80.4 Ci/mmole concentration was added to approximate 10^6 cells cultured in Ham's F-12K media. After 24 hrs, the cells were harvested and solubilized. Differential precipitation of the nucleic acids with trichloroacetic acid (TCA) was performed according to the procedure modified by Rosenberg et al. and the ^3H-thymidine proportion incorporated was calculated. […] The synthetic peptide had no effect on the control cell line HIT.

[7] = system: rat pancreatic tumor duct cells (ARIP); assay: 3H-thymidine incorporation into rat pancreatic tumor duct cells (ARIP); details: ARIP cells in Ham's F-12K media, 24 hrs, TCA precipitation
Method: as §1

Substance | stimulation of growth and proliferation [1] | stimulation of growth and proliferation [2] | stimulation of growth and proliferation [3] | stimulation of growth and proliferation [4] | stimulation of growth and proliferation [5] | effect on 3H-thymidine incorporation [6] | increase in 3H-thymidine incorporation comparing to the absence of the synthetic peptide [7] [fold]
fragment of 20 amino acids of the sequence of SEQ ID NO: 2, from amino acid #103-#122: fragment of 20 amino acids of INGAP, SEQ ID NO: 2, amino acids #103-#122 (IGLHDPSHGTLPNGSGWKWS) | effect has been seen | sufficient to stimulate pancreatic ductal cells to grow and proliferate | effect has been seen | effect has been seen | effect has been seen |  | 
synthetic peptide: synthetic peptide corresponding to amino acids 104-118 in SEQ ID NO:2 of the deduced hamster INGAP protein (GLHDPSHGTLPNGSG) |  |  |  |  |  | no effect | 2.4
